Test results taken from ChEMBL document CHEMBL3865843, “Identification of Ligand Binding Hot Spots of the Histamine H1 Receptor following Structure-Based Fragment Optimization” (J Med Chem, 2016).

Experiments:
Histamine H1 receptor = Histamine H1 receptor (Homo sapiens, UniProt P35367); experiment: biochemical; type: cell-based, HEK-293T
[1] = Displacement of [3H]mepyramine from human N-terminal hemagglutinin-tagged histamine H1 receptor I454(7.39)T mutant expressed in HEK293T cells after 4 hrs by microbeta liquid scintillation counting analysis; type: cell-based; conditions: hek-293t
[2] = Displacement of [3H]mepyramine from human N-terminal hemagglutinin-tagged histamine H1 receptor I454(7.39)F mutant expressed in HEK293T cells after 4 hrs by microbeta liquid scintillation counting analysis; type: cell-based; conditions: hek-293t

Histamine H1 receptor, sequence (P35367 whole entry): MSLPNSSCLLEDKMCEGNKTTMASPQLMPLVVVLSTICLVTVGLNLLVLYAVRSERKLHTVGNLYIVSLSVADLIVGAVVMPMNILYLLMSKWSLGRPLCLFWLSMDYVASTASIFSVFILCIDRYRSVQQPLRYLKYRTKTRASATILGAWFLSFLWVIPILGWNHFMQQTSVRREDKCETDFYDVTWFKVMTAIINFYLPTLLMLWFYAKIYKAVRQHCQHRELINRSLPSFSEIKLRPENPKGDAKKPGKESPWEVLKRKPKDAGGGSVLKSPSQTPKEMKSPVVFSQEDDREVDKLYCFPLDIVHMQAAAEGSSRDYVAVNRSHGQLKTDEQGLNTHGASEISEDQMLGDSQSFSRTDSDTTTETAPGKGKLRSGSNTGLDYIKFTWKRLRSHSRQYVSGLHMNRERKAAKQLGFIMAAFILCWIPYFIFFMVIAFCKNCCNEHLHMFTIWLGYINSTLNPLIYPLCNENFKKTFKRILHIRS

SMILES	Ki (Histamine H1 receptor)	pKi [1]	pKi [2]
c1ccc(Cc2ccccc2OCCCN2CCCC2)cc1	10 nM	–	–
c1ccc(Cc2ccccc2OCCN2CCCCC2)cc1	25.1 nM	–	–
c1ccc(Cc2ccccc2OCCCN2CCCCC2)cc1	12.6 nM	–	–
c1ccc(OC2CCNCC2)cc1	3980 nM	–	–
CN1CCC(Oc2ccccc2Cc2ccc(Cl)cc2)CC1	2.51 nM	–	–
CN1CCC(Oc2ccccc2Cc2ccccc2)CC1.O=C(O)/C=C/C(=O)O	–	8.3	8.2
Clc1ccc(Cc2ccccc2OC2CCNCC2)cc1	6.31 nM	–	–
c1ccc(Cc2cccc(OC3CCNCC3)c2)cc1	1580 nM	–	–
NCCOc1ccccc1Cc1ccccc1	1580 nM	–	–
c1ccc(-c2ccccc2OC2CCNCC2)cc1	316 nM	–	–
CN(C)CCOc1ccccc1Cc1ccccc1	12.6 nM	–	–
c1ccc(Cc2ccccc2OCCN2CCCCCC2)cc1	63.1 nM	–	–
C[N+]1(C)CCC(Oc2ccccc2Cc2ccccc2)CC1	25.1 nM	–	–
CNCCOc1ccccc1Cc1ccccc1	100 nM	–	–
CN(C)CCCOc1ccccc1Cc1ccccc1	3.16 nM	–	–
c1ccc(Cc2ccccc2OCCN2CCC2)cc1	6.31 nM	–	–
c1ccc(Cc2ccc(OC3CCNCC3)cc2)cc1	10000 nM	–	–
CNCCCOc1ccccc1Cc1ccccc1	31.6 nM	–	–
c1ccc(Cc2ccccc2OCCCN2CCCCCC2)cc1	20 nM	–	–
O=C(O)/C=C/C(=O)O.c1ccc(Cc2ccccc2OC2CCNCC2)cc1	15.8 nM	8	7.4
NCCCOc1ccccc1Cc1ccccc1	316 nM	–	–
CN1CCC(Oc2ccccc2)CC1	251 nM	–	–
c1ccc(Cc2ccccc2OCCCN2CCC2)cc1	7.94 nM	–	–
c1ccc(Cc2ccccc2OCCN2CCCC2)cc1	15.8 nM	–	–
